Experimental data: the supplement of paper PMC10307832

What follows are cell lines tested with COc1cc(-c2nn([C@H]3CC[C@H](N4CCN(C(C)=O)CC4)CC3)c3ncnc(N)c23)ccc1NC(=O)c1cc2ccccc2n1C + Cc1cc(Nc2cc(N3CCN(C)CC3)nc(Sc3ccc(NC(=O)C4CC4)cc3)n2)n[nH]1 [Tozasertib] (partner 0.1 µM) (assay: relative viability (nuclei count vs DMSO), 5 days (fraction); higher = more cells survive). Details: first compound 0.0128 µM.
Method in brief: (§1)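 Cells from lung cancer lines were seeded into 1536-well plates and, one day later, dosed by pin tool. Treatments were either a single drug or a fixed dose of an anchor drug with five library-drug doses (not always all listed) in √10 steps. After 5 days, nuclei were stained in a one-step fixation (final 0.05% Triton X-100, 1% formaldehyde, 1 ug/ml Hoechst) and counted on 4× images, and relative viability is the treated-to-vehicle nuclei ratio, as the median of duplicate plates.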
NCI-H2342 showed a relative viability of 0.595. Cell Line NCI-H1623 has a relative viability of 0.449. NCI-H727 showed a relative viability of 0.65. Cell Line NCI-H1650 has a relative viability of 0.36. NCI-H1993 gave a relative viability of 0.568. Work on SW 1573 yielded a relative viability of 0.201. NCI-H838 showed a relative viability of 0.287. Cell Line LCLC-103H has a relative viability of 0.438. Work on NCI-H520 yielded a relative viability of 0.378. NCI-H2126 gave a relative viability of 0.833. Work on EMC-BAC-2 yielded a relative viability of 0.276. NCI-H2085 gave a relative viability of 0.827. HCC-366 was tested, and the relative viability was 0.114. Cell Line NCI-H1666 has a relative viability of 0.619. NCI-H596 gave a relative viability of 0.972. In the case of LK-2, the relative viability was 0.195. With NCI-H2087 the relative viability was 0.221. Cell Line NCI-H1648 has a relative viability of 0.381. SK-MES-1 showed a relative viability of 0.906. H3255 gave a relative viability of 0.829. In the case of COR-L23, the relative viability was 0.246. COR-L 105 showed a relative viability of 0.335. LOU-NH91 was tested, and the relative viability was 0.664. In the case of ChaGo-K-1, the relative viability was 0.215. NCI-H2170 was tested, and the relative viability was 0.805. With HCC-44 the relative viability was 0.707. HCC-78 was tested, and the relative viability was 0.456. In the case of NCI-H2009, the relative viability was 0.743. With NCI-H661 the relative viability was 0.362. SK-LU-1 was tested, and the relative viability was 0.346. NCI-H2228 gave a relative viability of 0.273. For NCI-H2023, the relative viability was 0.381.

Same assay, conditions: first compound 0.04048 µM
In the case of NCI-H2342, the relative viability was 0.523. NCI-H1623 showed a relative viability of 0.419. NCI-H1650 was tested, and the relative viability was 0.374. NCI-H1993 gave a relative viability of 0.534. In the case of SW 1573, the relative viability was 0.108. With NCI-H838 the relative viability was 0.289. LCLC-103H was tested, and the relative viability was 0.453. Cell Line NCI-H520 has a relative viability of 0.432. In the case of NCI-H2126, the relative viability was 0.946. EMC-BAC-2 showed a relative viability of 0.377. For NCI-H2085, the relative viability was 0.867. For HCC-366, the relative viability was 0.0717. Work on NCI-H1666 yielded a relative viability of 0.67. NCI-H596 was tested, and the relative viability was 1.17. For LK-2, the relative viability was 0.155. With NCI-H1648 the relative viability was 0.514. SK-MES-1 was tested, and the relative viability was 1.01. Work on H3255 yielded a relative viability of 0.591. Work on COR-L23 yielded a relative viability of 0.217. COR-L 105 was tested, and the relative viability was 0.309. Work on LOU-NH91 yielded a relative viability of 0.598. Work on ChaGo-K-1 yielded a relative viability of 0.218. Work on NCI-H2170 yielded a relative viability of 0.738. In the case of HCC-44, the relative viability was 1.29. For HCC-78, the relative viability was 0.368. NCI-H2009 gave a relative viability of 0.734. With NCI-H661 the relative viability was 0.381. Cell Line SK-LU-1 has a relative viability of 0.352. In the case of NCI-H2228, the relative viability was 0.242. NCI-H2023 was tested, and the relative viability was 0.309.

Same assay, conditions: first compound 0.128 µM
In the case of NCI-H2342, the relative viability was 0.491. NCI-H1623 was tested, and the relative viability was 0.424. With NCI-H727 the relative viability was 0.581. In the case of NCI-H1650, the relative viability was 0.351. With NCI-H1993 the relative viability was 0.56. SW 1573 gave a relative viability of 0.175. Work on NCI-H838 yielded a relative viability of 0.322. With LCLC-103H the relative viability was 0.431. NCI-H520 was tested, and the relative viability was 0.412. With NCI-H2126 the relative viability was 0.773. Work on EMC-BAC-2 yielded a relative viability of 0.331. NCI-H2085 gave a relative viability of 0.728. For HCC-366, the relative viability was 0.0637. Work on NCI-H1666 yielded a relative viability of 0.593. Work on NCI-H596 yielded a relative viability of 0.872. LK-2 gave a relative viability of 0.184. NCI-H2087 gave a relative viability of 0.216. NCI-H1648 showed a relative viability of 0.469. In the case of SK-MES-1, the relative viability was 0.827. With H3255 the relative viability was 0.571. For COR-L23, the relative viability was 0.147. COR-L 105 was tested, and the relative viability was 0.355. Work on LOU-NH91 yielded a relative viability of 0.699. With ChaGo-K-1 the relative viability was 0.211. For NCI-H2170, the relative viability was 0.688. With HCC-44 the relative viability was 0.796. HCC-78 was tested, and the relative viability was 0.742. For NCI-H2009, the relative viability was 0.681. With NCI-H661 the relative viability was 0.346. For SK-LU-1, the relative viability was 0.273. NCI-H2228 was tested, and the relative viability was 0.22. With NCI-H2023 the relative viability was 0.179.

Same assay, conditions: first compound 1.28 µM
In the case of NCI-H2342, the relative viability was 0.303. Work on NCI-H1623 yielded a relative viability of 0.41. NCI-H727 was tested, and the relative viability was 0.477. In the case of NCI-H1650, the relative viability was 0.2. NCI-H1993 showed a relative viability of 0.546. SW 1573 gave a relative viability of 0.148. NCI-H838 gave a relative viability of 0.209. For LCLC-103H, the relative viability was 0.423. NCI-H520 showed a relative viability of 0.31. NCI-H2126 showed a relative viability of 0.638. For EMC-BAC-2, the relative viability was 0.273. NCI-H2085 was tested, and the relative viability was 0.372. Work on HCC-366 yielded a relative viability of 0.0555. In the case of NCI-H1666, the relative viability was 0.587. NCI-H596 showed a relative viability of 0.541. LK-2 gave a relative viability of 0.165. NCI-H2087 showed a relative viability of 0.194. Cell Line NCI-H1648 has a relative viability of 0.3. SK-MES-1 was tested, and the relative viability was 0.936. Cell Line H3255 has a relative viability of 0.581. For COR-L23, the relative viability was 0.133. For COR-L 105, the relative viability was 0.269. With LOU-NH91 the relative viability was 0.671. With ChaGo-K-1 the relative viability was 0.195. NCI-H2170 showed a relative viability of 0.639. HCC-44 was tested, and the relative viability was 0.819. In the case of HCC-78, the relative viability was 0.269. NCI-H2009 gave a relative viability of 0.606. NCI-H661 was tested, and the relative viability was 0.34. SK-LU-1 was tested, and the relative viability was 0.226. Work on NCI-H2228 yielded a relative viability of 0.157. NCI-H2023 showed a relative viability of 0.199.

These cell lines were tested with CO[C@@H]1[C@H](N(C)C(=O)c2ccccc2)C[C@H]2O[C@]1(C)n1c3ccccc3c3c4c(c5c6ccccc6n2c5c31)C(=O)NC4 [Midostaurin] + CCNC(=O)c1noc(-c2cc(C(C)C)c(O)cc2O)c1-c1ccc(CN2CCOCC2)cc1 [Luminespib] (partner 0.01 µM) in the same assay as above. Details: first compound 0.01 µM.
Method in brief: as §1
Cell Line NCI-H2342 has a relative viability of 0.704. Work on NCI-H1623 yielded a relative viability of 0.526. For NCI-H727, the relative viability was 0.343. With NCI-H1650 the relative viability was 0.19. For NCI-H1993, the relative viability was 0.807. SW 1573 was tested, and the relative viability was 0.377. For NCI-H838, the relative viability was 0.32. Cell Line LCLC-103H has a relative viability of 0.906. With NCI-H520 the relative viability was 0.221. With NCI-H2126 the relative viability was 0.889. EMC-BAC-2 was tested, and the relative viability was 1.11. NCI-H2085 was tested, and the relative viability was 0.42. For NCI-H1666, the relative viability was 0.966. For NCI-H596, the relative viability was 1.13. LK-2 was tested, and the relative viability was 0.191. NCI-H2087 was tested, and the relative viability was 0.258. Cell Line SK-MES-1 has a relative viability of 0.785. For H3255, the relative viability was 1.14. In the case of COR-L23, the relative viability was 0.605. For COR-L 105, the relative viability was 0.597. LOU-NH91 gave a relative viability of 0.328.
